{"source": "paper PMC5007552", "about": "“The hVps34‐SGK3 pathway alleviates sustained PI3K/Akt inhibition by stimulating mTORC1 and tumour growth” (The EMBO Journal, 2016)", "system": "ZR-75-1 cells", "assay": "NanoString human kinome mRNA quantification", "format": "cell-based", "excerpt": "Human mRNAs were hybridised to NanoString human kinome and control code sets, then subjected to quantification using NanoString software. […] To permit data compaction, and simple kinome‐wide comparisons, the fold changes are log2 transformed. […] Cell pellets were resuspended at a concentration of ~6,500 cells/μl in RLT buffer (Qiagen). […] For total copy numbers, triplicate normalised count values were averaged, and to calculate fold induction, means were divided by triplicate mean values from matched DMSO controls. P‐values were calculated using unpaired t‐test (GraphPad Prism software) by employing treated and control count data for each kinase mRNA.", "note": "Values joined by “and” are separate entries in the source; they are usually repeats but may differ in a detail not shown here. Equal values may be shown once.", "data": [{"smiles": "NC1(c2ccc(-c3nc4ccn5c(=O)[nH]nc5c4cc3-c3ccccc3)cc2)CCC1", "note": "[MK-2206]", "values": [{"measurement": "MAST2 Normalised counts (single replicates)", "setting": "MAST2 mRNA, replicates 1-3", "result": "738.65 and 699.23 and 725.5"}, {"measurement": "MAST3 Normalised counts (single replicates)", "setting": "MAST3 mRNA, replicates 1-3", "result": 218.81}, {"measurement": "MAST4 Normalised counts Average", "setting": "MAST4 mRNA, average of 3", "result": 166.143}, {"measurement": "MAST4 Normalised counts (single replicates)", "setting": "MAST4 mRNA, replicates 1-3", "result": "166 and 165.82 and 166.61"}, {"measurement": "MASTL Normalised counts Average", "setting": "MASTL mRNA, average of 3", "result": 679.5}, {"measurement": "MASTL Normalised counts (single replicates)", "setting": "MASTL mRNA, replicates 1-3", "result": "701.38 and 631.47 and 705.65"}, {"measurement": "MATK Normalised counts (single replicates)", "setting": "MATK mRNA, replicates 1-3", "result": 210.28}, {"measurement": "MERTK Normalised counts Average", "setting": "MERTK mRNA, average of 3", "result": 1}, {"measurement": "MERTK Normalised counts (single replicates)", "setting": "MERTK mRNA, replicates 1-3", "result": 1}, {"measurement": "MET Normalised counts Average", "setting": "MET mRNA, average of 3", "result": 45.06}, {"measurement": "MET Normalised counts (single replicates)", "setting": "MET mRNA, replicates 1-3", "result": "44.2 and 35.51 and 55.47"}, {"measurement": "MINK1 Normalised counts Average", "setting": "MINK1 mRNA, average of 3", "result": 1315.77}, {"measurement": "MINK1 Normalised counts (single replicates)", "setting": "MINK1 mRNA, replicates 1-3", "result": "1338.56 and 1283.89 and 1324.87"}, {"measurement": "Average normalised counts", "setting": "MKNK1 mRNA", "result": 747.723}, {"measurement": "Average normalised counts", "setting": "MKNK2 mRNA", "result": 1542.12}, {"measurement": "Average normalised counts", "setting": "MLKL mRNA", "result": 206.987}, {"measurement": "Average normalised counts", "setting": "MOK mRNA", "result": 276.793}, {"measurement": "Average normalised counts", "setting": "MOS mRNA", "result": 1.463}, {"measurement": "Average normalised counts", "setting": "MST1R mRNA", "result": 587.597}, {"measurement": "Average normalised counts", "setting": "MST4 mRNA", "result": 1197.2}, {"measurement": "Average normalised counts", "setting": "MTOR mRNA", "result": 1169.76}, {"measurement": "Average normalised counts", "setting": "MUSK mRNA", "result": 1}, {"measurement": "Average normalised counts", "setting": "MYLK2 mRNA", "result": 3.573}, {"measurement": "Average normalised counts", "setting": "MYLK3 mRNA", "result": 4.65}, {"measurement": "Average normalised counts", "setting": "MYLK4 mRNA", "result": 3.183}, {"measurement": "Average normalised counts", "setting": "MYLK mRNA", "result": 35.0933}, {"measurement": "Average normalised counts", "setting": "MYO3B mRNA", "result": 1.693}, {"measurement": "Average normalised counts", "setting": "NEK1 mRNA", "result": 126.33}, {"measurement": "Average normalised counts", "setting": "NEK2 mRNA", "result": 1658.91}, {"measurement": "Average normalised counts", "setting": "NEK3 mRNA", "result": 279.833}, {"measurement": "Average normalised counts", "setting": "NEK5 mRNA", "result": 63.3867}, {"measurement": "Average normalised counts", "setting": "NEK6 mRNA", "result": 316.677}, {"measurement": "Average normalised counts", "setting": "NEK7 mRNA", "result": 1505.67}, {"measurement": "Average normalised counts", "setting": "NEK8 mRNA", "result": 178.517}, {"measurement": "Average normalised counts", "setting": "NEK9 mRNA", "result": 368.757}, {"measurement": "Average normalised counts", "setting": "NEK10 mRNA", "result": 2.217}, {"measurement": "Average normalised counts", "setting": "NIM1 mRNA", "result": 1.163}, {"measurement": "Average normalised counts", "setting": "NLK mRNA", "result": 173.16}, {"measurement": "Average normalised counts", "setting": "NPR1 mRNA", "result": 1}, {"measurement": "Average normalised counts", "setting": "NPR2 mRNA", "result": 1}, {"measurement": "Average normalised counts", "setting": "NRBP1 mRNA", "result": 1653.03}, {"measurement": "Average normalised counts", "setting": "NRBP2 mRNA", "result": 1124.63}, {"measurement": "Average normalised counts", "setting": "NRK mRNA", "result": 29.1233}, {"measurement": "Average normalised counts", "setting": "NTRK1 mRNA", "result": 2.95}, {"measurement": "Average normalised counts", "setting": "NTRK2 mRNA", "result": 77.2267}, {"measurement": "Average normalised counts", "setting": "NTRK3 mRNA", "result": 11.2267}, {"measurement": "Average normalised counts", "setting": "NUAK1 mRNA", "result": 101.57}, {"measurement": "Average normalised counts", "setting": "NUAK2 mRNA", "result": 96.2433}, {"measurement": "Average normalised counts", "setting": "OBSCN mRNA", "result": 96.8}, {"measurement": "Average normalised counts", "setting": "OXSR1 mRNA", "result": 220.06}, {"measurement": "Average normalised counts", "setting": "PAK1 mRNA", "result": 710.853}, {"measurement": "Average normalised counts", "setting": "PAK2 mRNA", "result": 2547.5}, {"measurement": "Average normalised counts", "setting": "PAK3 mRNA", "result": 3.48}, {"measurement": "Average normalised counts", "setting": "PAK4 mRNA", "result": 1206.53}, {"measurement": "Average normalised counts", "setting": "PAK6 mRNA", "result": 64.56}, {"measurement": "Average normalised counts", "setting": "PAK7 mRNA", "result": 2.957}, {"measurement": "Average normalised counts", "setting": "PAN3 mRNA", "result": 788.86}, {"measurement": "ROCK2 normalised counts, average", "setting": "ROCK2 mRNA, average of 3 replicates", "result": 1654.49}, {"measurement": "ROCK2 normalised counts", "setting": "ROCK2 mRNA, single replicates", "result": "1580.35 and 1693.07 and 1690.04"}, {"measurement": "ROR1 normalised counts, average", "setting": "ROR1 mRNA, average of 3 replicates", "result": 3.17}, {"measurement": "ROR1 normalised counts", "setting": "ROR1 mRNA, single replicates", "result": "1.48 and 3.37 and 4.66"}, {"measurement": "ROR2 normalised counts, average", "setting": "ROR2 mRNA, average of 3 replicates", "result": 177.843}, {"measurement": "ROR2 normalised counts", "setting": "ROR2 mRNA, single replicates", "result": "183.27 and 188.41 and 161.85"}, {"measurement": "ROS1 normalised counts, average", "setting": "ROS1 mRNA, average of 3 replicates", "result": 1}, {"measurement": "ROS1 normalised counts", "setting": "ROS1 mRNA, single replicates", "result": 1}, {"measurement": "RPS6KA1 normalised counts, average", "setting": "RPS6KA1 mRNA, average of 3 replicates", "result": 743.577}, {"measurement": "RPS6KA1 normalised counts", "setting": "RPS6KA1 mRNA, single replicates", "result": "752.28 and 733.11 and 745.34"}, {"measurement": "RPS6KA2 normalised counts, average", "setting": "RPS6KA2 mRNA, average of 3 replicates", "result": 42.18}, {"measurement": "RPS6KA2 normalised counts", "setting": "RPS6KA2 mRNA, single replicates", "result": "39.65 and 43.33 and 43.56"}, {"measurement": "RPS6KA3 normalised counts, average", "setting": "RPS6KA3 mRNA, average of 3 replicates", "result": 81.17}, {"measurement": "RPS6KA3 normalised counts", "setting": "RPS6KA3 mRNA, single replicates", "result": "77.83 and 82.42 and 83.26"}, {"measurement": "RPS6KA4 normalised counts, average", "setting": "RPS6KA4 mRNA, average of 3 replicates", "result": 830.71}, {"measurement": "RPS6KA4 normalised counts", "setting": "RPS6KA4 mRNA, single replicates", "result": "858.63 and 809.56 and 823.94"}, {"measurement": "RPS6KA5 normalised counts, average", "setting": "RPS6KA5 mRNA, average of 3 replicates", "result": 131.06}, {"measurement": "RPS6KA5 normalised counts", "setting": "RPS6KA5 mRNA, single replicates", "result": "126.01 and 136.28 and 130.89"}, {"measurement": "RPS6KA6 normalised counts, average", "setting": "RPS6KA6 mRNA, average of 3 replicates", "result": 136.14}, {"measurement": "RPS6KA6 normalised counts", "setting": "RPS6KA6 mRNA, single replicates", "result": "127.82 and 135.42 and 145.18"}, {"measurement": "RPS6KB1 normalised counts, average", "setting": "RPS6KB1 mRNA, average of 3 replicates", "result": 1559.99}, {"measurement": "RPS6KB1 normalised counts", "setting": "RPS6KB1 mRNA, single replicates", "result": "1574.89 and 1571.44 and 1533.65"}, {"measurement": "RPS6KB2 normalised counts, average", "setting": "RPS6KB2 mRNA, average of 3 replicates", "result": 3538.09}, {"measurement": "RPS6KB2 normalised counts", "setting": "RPS6KB2 mRNA, single replicates", "result": "3546.44 and 3576.5 and 3491.33"}, {"measurement": "RPS6KC1 normalised counts, average", "setting": "RPS6KC1 mRNA, average of 3 replicates", "result": 1368.65}, {"measurement": "RPS6KC1 normalised counts", "setting": "RPS6KC1 mRNA, single replicates", "result": "1361.29 and 1349.92 and 1394.73"}, {"measurement": "RPS6KL1 normalised counts, average", "setting": "RPS6KL1 mRNA, average of 3 replicates", "result": 85.8967}, {"measurement": "RPS6KL1 normalised counts", "setting": "RPS6KL1 mRNA, single replicates", "result": "86.01 and 87.63 and 84.05"}, {"measurement": "RYK normalised counts, average", "setting": "RYK mRNA, average of 3 replicates", "result": 1136.11}]}]}
